From patent publication US20160298129A1, “ALS INHIBITOR HERBICIDE TOLERANT MUTANT PLANTS” (BAYER CROPSCIENCE NV, priority 2013, published 2016)
pIC50: −log10 of the molar value.

Assays:
[1] = target: AHAS W574L (Arabidopsis thaliana, UniProt P17597, E575Q/W574L); type: biochemical
Description: (§1) Bacteria are grown at 37° C. in LB-medium containing 100 mg/l carbenicillin and 25 mg/l canamycin, induced with 1 mM isopropyl-β-D-thiogalactopyranoside at an OD600 of 0.6, cultivated for 16 hours at 18° C. and harvested by, e.g., centrifugation. Bacterial pellets are resuspended in 100 mM sodium phosphate buffer pH 7.0 containing 0.1 mM thiamine-pyrophosphate, 1 mM MgCl2, and 1 μM FAD at a concentration of 1 gram wet weight per 25 ml of buffer and disrupted by, e.g., sonification. The crude protein extract obtained after centrifugation is used for ALS activity measurements.
(§2) ALS protein can be extracted from leaves or tissue cultures, such as B. napus or B. juncea leaves, or B. napus or B. juncea tissue cultures as described by Ray (Plant Physiol, 1984, 75:827-831). An ALS assays can be carried out in 96-well microtiter plates using a modification of the procedure described by Ray (1984): The reaction mixture contains 20 mM potassium phosphate buffer pH 7.0, 20 mM sodium pyruvate, 0.45 mM thiamine-pyrophosphate, 0.45 mM MgCl2, 9 μM FAD. ALS enzyme and various concentrations of ALS inhibitors can be mixed in a final volume of 90 μl Assays can be initiated by adding enzyme and the assays can be terminated after 75 min incubation at 30° C. by the addition of 40 μl 0.5 M H2SO4.

[2] = target: AHAS P197S (Arabidopsis thaliana, UniProt P17597, E575Q/P197S); type: biochemical
Chain of AHAS P197S (P17597 56-670 P197S/E575Q): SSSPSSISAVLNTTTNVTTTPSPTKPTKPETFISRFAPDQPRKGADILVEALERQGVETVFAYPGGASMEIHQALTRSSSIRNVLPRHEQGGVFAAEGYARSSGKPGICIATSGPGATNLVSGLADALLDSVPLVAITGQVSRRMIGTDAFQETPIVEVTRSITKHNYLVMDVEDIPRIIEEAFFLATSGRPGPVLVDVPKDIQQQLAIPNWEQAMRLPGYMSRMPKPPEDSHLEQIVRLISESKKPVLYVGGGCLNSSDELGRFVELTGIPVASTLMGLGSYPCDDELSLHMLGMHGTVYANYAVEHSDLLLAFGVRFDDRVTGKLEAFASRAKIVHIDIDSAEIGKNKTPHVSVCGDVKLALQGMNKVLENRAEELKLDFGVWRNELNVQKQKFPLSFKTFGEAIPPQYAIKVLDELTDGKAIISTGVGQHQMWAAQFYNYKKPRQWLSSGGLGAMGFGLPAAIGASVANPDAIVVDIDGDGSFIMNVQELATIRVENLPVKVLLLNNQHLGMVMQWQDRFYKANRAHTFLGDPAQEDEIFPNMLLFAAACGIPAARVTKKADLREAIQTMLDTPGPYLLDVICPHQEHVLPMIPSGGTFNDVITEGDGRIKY
Description: as §1, §2

[3] = target: AHAS D376E-W574L (Arabidopsis thaliana, UniProt P17597, D376E/E575Q/W574L); assay: biochemical; conditions: for Resistance Factor: AHAS D376E-W574L
Chain of AHAS D376E-W574L (P17597 56-670 D376E/W574L/E575Q): as the sequence (P17597 56-670 P197S/E575Q) above, with S142P, D321E, W519L counted along it
Description: as §1, §2

[4] = target: AHAS D376E (Arabidopsis thaliana, UniProt P17597, D376E/E575Q); assay: biochemical; conditions: for Resistance Factor: AHAS D376E
Chain of AHAS D376E (P17597 56-670 D376E/E575Q): as the sequence (P17597 56-670 P197S/E575Q) above, with S142P, D321E counted along it
Description: as §1, §2

[5] = target: AHAS P197S-W574L (Arabidopsis thaliana, UniProt P17597, E575Q/P197S/W574L); assay: biochemical; conditions: for Resistance Factor: AHAS P197S-W574L
Chain of AHAS P197S-W574L (P17597 56-670 P197S/W574L/E575Q): as the sequence (P17597 56-670 P197S/E575Q) above, with W519L counted along it
Description: as §1, §2

[6] = target: AHAS P197S-D376E (Arabidopsis thaliana, UniProt P17597, D376E/E575Q/P197S); assay: biochemical; conditions: for Resistance Factor: AHAS P197S-D376E
Chain of AHAS P197S-D376E (P17597 56-670 P197S/D376E/E575Q): as the sequence (P17597 56-670 P197S/E575Q) above, with D321E counted along it
Description: as §1, §2

[7] = target: AHAS P197S-D376E-W574L (Arabidopsis thaliana, UniProt P17597, D376E/E575Q/P197S/W574L); assay: biochemical; conditions: for Resistance Factor: AHAS P197S-D376E-W574L
Chain of AHAS P197S-D376E-W574L (P17597 56-670 P197S/D376E/W574L/E575Q): as the sequence (P17597 56-670 P197S/E575Q) above, with D321E, W519L counted along it
Description: as §1, §2

[8] = system: oilseed rape homozygous for HETO132 and HETO134 (132-134); assay: Field herbicide tolerance, visible phytotoxicity (ALS I W574L, ALS III P197S-W574L); type: in vivo, Brassica napus; conditions: gai/ha: imazamox 40, bispyribac-sodium 50, propoxycarbazone-sodium 70, mesosulfuron-methyl 60, pyroxsulam 12.5 + cloquintocet-mexyl 37.5, each + rapeseed oil methylated 366.5
Excerpt: (§3) Seeds of spring oilseed rape homozygous for HETO139 and HETO134 were sown in a field according to typical practical agricultural methods together with seeds homozygous for HETO134 and HETO133 (comprising a W574L mutation on ALS III, which were obtained in the same way as HETO134), and with seeds homozygous for HETO134 and HETO132 (comprising a P197S and a W574L mutation on ALS III, which were obtained in essentially the same way as HETO139). Several ALS inhibitor herbicides were applied to the oilseed rape plants by using specific spray equipment for small plot applications.

[9] = system: oilseed rape homozygous for HETO133 and HETO134 (133-134); assay: Field herbicide tolerance, visible phytotoxicity (ALS I W574L, ALS III W574L); type: in vivo, Brassica napus; conditions: gai/ha: imazamox 40, bispyribac-sodium 50, propoxycarbazone-sodium 70, mesosulfuron-methyl 60, pyroxsulam 12.5 + cloquintocet-mexyl 37.5, each + rapeseed oil methylated 366.5
Excerpt: as §3

[10] = system: wild-type (WT) oilseed rape; assay: Field herbicide tolerance, visible phytotoxicity; type: in vivo, Brassica napus; conditions: gai/ha: imazamox 40, bispyribac-sodium 50, propoxycarbazone-sodium 70, mesosulfuron-methyl 60, pyroxsulam 12.5 + cloquintocet-mexyl 37.5, each + rapeseed oil methylated 366.5
[11] = system: oilseed rape homozygous for HETO139 and HETO134 (139-134); assay: Field herbicide tolerance, visible phytotoxicity (ALS I W574L, ALS III P197S-D376E); type: in vivo, Brassica napus; conditions: gai/ha: imazamox 40, bispyribac-sodium 50, propoxycarbazone-sodium 70, mesosulfuron-methyl 60, pyroxsulam 12.5 + cloquintocet-mexyl 37.5, each + rapeseed oil methylated 366.5
Excerpt: as §3

Chain of AHAS W574L (P17597 56-670 W574L/E575Q): as the sequence (P17597 56-670 P197S/E575Q) above, with S142P, W519L counted along it

| SMILES | Resistance Factor [1] | Resistance Factor [2] | pIC50 [3] | Resistance Factor [3] | pIC50 [4] | Resistance Factor [4] | pIC50 [5] | Resistance Factor [5] | pIC50 [6] | Resistance Factor [6] | pIC50 [7] | Resistance Factor [7] | Percentage phytotoxicity ([8]; 9 DAA) [%] | Percentage phytotoxicity ([8]; 16 DAA) [%] | Percentage phytotoxicity ([8]; 24 DAA) [%] | Percentage phytotoxicity ([9]; 9 DAA) [%] | Percentage phytotoxicity ([9]; 16 DAA) [%] | Percentage phytotoxicity ([9]; 24 DAA) [%] | Percentage phytotoxicity ([10]; 9 DAA) [%] | Percentage phytotoxicity ([10]; 16 DAA) [%] | also measured |
| --- | --- | --- | --- | --- | --- | --- | --- | --- | --- | --- | --- | --- | --- | --- | --- | --- | --- | --- | --- | --- | --- |
| COc1cc(OC)nc(NC(=O)NS(=O)(=O)N(C)S(C)(=O)=O)n1 [Amidosulfuron, amidosulfuron] | >488 | >488 | < 4.00 | >488 | < 4.00 | >488 | < 4.00 | >488 | < 4.00 | >488 | < 4.00 | >488 |  |  |  |  |  |  |  |  |  |
| COc1cc(OC)nc(Oc2cccc(Oc3nc(OC)cc(OC)n3)c2C(=O)O)n1 [Bispyribac-sodium, bispyribac-sodium] | 447 | 4 | < 4.00 | >5623 | 6.00 | 56 | < 4.00 | >5623 | 5.10 | 447 | < 4.00 | >5623 | 46.7 | 71.7 | 43.3 | 56.7 | 88.3 | 92.7 | 76.7 | 98.3 | Percentage phytotoxicity ([10]; 24 DAA): 100%; Percentage phytotoxicity ([11]; 9 DAA): 40%; Percentage phytotoxicity ([11]; 16 DAA): 65%; Percentage phytotoxicity ([11]; 24 DAA): 43.3% |
| COc1cc(OC)nc(NC(=O)NS(=O)(=O)c2ncccc2C(F)(F)F)n1 [Flazasulfuron, flazasulfuron] | 3802 | 120 | < 4.00 | >120226 | 6.20 | 759 | < 4.00 | >120226 | < 4.00 | >120226 | < 4.00 | >120226 |  |  |  |  |  |  |  |  |  |
| COC(=O)c1ccc(C(F)(F)F)nc1S(=O)(=O)NC(=O)Nc1nc(OC)cc(OC)n1 [Flupyrsulfuron-methyl] |  |  |  | >47863 |  | 2399 |  | >47863 |  | >47863 |  | >47863 |  |  |  |  |  |  |  |  |  |
| COCc1cnc(C2=NC(C)(C(C)C)C(=O)N2)c(C(=O)O)c1 (stereo not drawn) [Imazamox, imazamox] | >22 | 1 | < 4.00 | >22 | 4.30 | 11 | < 4.00 | >22 | < 4.00 | >22 | < 4.00 | >22 | 6.7 | 8.7 | 0 | 6.7 | 10 | 0 | 73.3 | 98 | Percentage phytotoxicity ([10]; 24 DAA): 99%; Percentage phytotoxicity ([11]; 9 DAA): 13.3%; Percentage phytotoxicity ([11]; 16 DAA): 13.3%; Percentage phytotoxicity ([11]; 24 DAA): 0% |
| COC(=O)c1ccc(I)cc1S(=O)(=O)[N-]C(=O)Nc1nc(C)nc(OC)n1.[Na+] [Iodosulfuron-methy-sodium, iodosulfuron-methyl-sodium] | 555 | 139 |  | >35030 |  | 3503 |  | >35030 |  | >35030 |  | >35030 |  |  |  |  |  |  |  |  |  |
| COC(=O)c1ccc(CNS(C)(=O)=O)cc1S(=O)(=O)NC(=O)Nc1nc(OC)cc(OC)n1 [Mesosulfuron-methyl, mesosulfuron-methyl] | 25770 | 65 |  | >64730 |  | 12915 |  | >64730 |  |  |  | >64730 | 11.7 | 11.7 | 20.3 | 11.7 | 13.3 | 3.3 | 76.7 | 98 | Percentage phytotoxicity ([10]; 24 DAA): 96%; Percentage phytotoxicity ([11]; 9 DAA): 9.3%; Percentage phytotoxicity ([11]; 16 DAA): 13.3%; Percentage phytotoxicity ([11]; 24 DAA): 5% |
| COc1cc(OC)n2nc(S(=O)(=O)Nc3c(Cl)ccc(C)c3Cl)nc2n1 [Metosulam, metosulam] | 5754 | 457 | < 4.00 | >28840 | 5.70 | 575 | < 4.00 | >28840 | < 4.00 | >28840 | < 4.00 | >28840 |  |  |  |  |  |  |  |  |  |
| COC(=O)c1ccccc1S(=O)(=O)NC(=O)Nc1nc(C)nc(OC)n1 [Metsulfuron-methyl, metsulfuron-methyl] | 755 | 38 |  | >7547 |  | 239 |  | >7547 |  | >7547 |  | >7547 |  |  |  |  |  |  |  |  |  |
| CCCOc1nn(C(=O)[N-]S(=O)(=O)c2ccccc2C(=O)OC)c(=O)n1C.[Na+] [PROPOXYCARBAZONE-SODIUM, propoxycarbazone-sodium] |  |  |  |  |  |  |  |  |  |  |  |  | 40 | 36.7 | 11.7 | 53.3 | 82.7 | 76.7 | 76.7 | 97 | Percentage phytotoxicity ([10]; 24 DAA): 97.7%; Percentage phytotoxicity ([11]; 9 DAA): 15%; Percentage phytotoxicity ([11]; 16 DAA): 20%; Percentage phytotoxicity ([11]; 24 DAA): 1.7% |
| CCCOc1nn(C(=O)[N-]S(=O)(=O)c2ccccc2C(=O)OC)c(=O)n1C.[Na+] [Propoxycarbazone] | 293 | 147 |  | >4641 |  | 1468 |  | >4641 |  | >4641 |  | >4641 |  |  |  |  |  |  |  |  |  |
| COC(=O)c1csc(C)c1S(=O)(=O)NC(=O)n1nc(OC)n(C)c1=O [Thiencarbazone-methyl, thiencarbazone-methyl] | 1173 | 1173 |  | >7399 |  | 371 |  | >7399 |  | >7399 |  | >7399 |  |  |  |  |  |  |  |  |  |
| COC(=O)c1sccc1S(=O)(=O)NC(=O)Nc1nc(C)nc(OC)n1 [Thifensulfuron-Methyl, thifensulfuron-methyl] | 1585 | 200 | < 4.00 | >2511 | 4.60 | 631 | < 4.00 | >2511 | < 4.00 | >2511 | < 4.00 | >2511 |  |  |  |  |  |  |  |  |  |
